The text below walks through data of patent US5202355A, “Method of inhibiting aldose reductase in diabetic hosts using phenol derivatives” (Takasago Institute for Interdisciplinary Science Inc., priority 1991, dated 1993).

Read-outs that look alike come from different tables or passages of the source.

The subject of assay [1] is peripheral nerve deterioration. Particulars: diabetic patients suffering from peripheral nerve deterioration; cited from earlier work.
Assay [2] has as its target calf lens aldose reductase. Particulars: cited from earlier work.
In assay [3] the test system is motor nerve conduction velocity (MNCV). The settings on record: short and long-term streptozotocin induced diabetes in rats; cited from earlier work.
Another assay deals with T1, aldose reductase (Bos taurus, UniProt P16116).
T1 construct: The enzyme was isolated from the homogenized preparation by successive chromatography; from tissue; host or cells: calf eye lens
Nature of the assay: Aldose reductase inhibition (percent inhibition of enzyme activity). Format: biochemical, calf. As for the experimental part: The following phenols were tested for their ability to inhibit aldose reductase enzyme activity.
The assay was conducted essentially according to the procedure of S. Hayman, et al., as described in the Journal of Biological Chemistry, 240, 877 (1965).
The preparation of aldose reductase was conducted according to the procedure of K. Inagaki et al., ARchives of Biochemistry and Biophysics, 216, 337 (1982). Briefly, lenses were removed from calf eyes and homogenized. The enzyme was isolated from the homogenized preparation by successive chromatography on a DEAE-sephacel column (Pharmacia LKB Biotechnology, Piscataway, N.J.), an affinity column (Matrex gel red A; Amicon Co., Danvers, Mass.), and a Sephadex G-75 column (Pharmacia LKB Biotechnology, Piscataway, N.J.).
A reaction mixture of 0.1M sodium phosphate buffer (pH 6.2), 0.4M ammonium sulfate, 10 mm glyceraldehyde, 0.16 mm NADPH, and 10 ml propylene glycol solution containing the purified enzyme was prepared. The test compound was incubated with the enzyme in the reaction mixture.
Aldose reductase activity was assayed spectrophotometrically by determining the decrease in the NADPH concentration at 340 nm in a Beckman DU-64 spectrophotometer (Beckman, Palo Alto, Calif.).
The percent inhibition of each compound was calculated by comparing the reaction rate of the solution containing substrate and the compound at a given concentration with that of the control solution containing only substrate.

Assay [4] concerns galactosemic cataract formation. The settings on record: experimental rats; cited from earlier work.
Setting [5] is: 10^-6 M (× 1.9), read-out: Percent Inhibition (%).
The mark [6] stands for this setting: 10^-6 M (× 3.8), read-out: Percent Inhibition (%).
Where [7] appears, read: 10^-6 M (× 7.5), read-out: Percent Inhibition (%).

As for `O=C1NC(=O)[C@@]2(CCOc3ccc(F)cc32)N1` [sorbinil, d-6-fluoro-spiro [chroman-4,4'-imidazolidine]-2',5'-dione], the “improvement in diabetic patients” value in assay [1] is listed as “no beneficial effect was observed”. Moreover, the IC50 in assay [2] (calf lens aldose reductase, read-out: IC50 concentration) was roughly 500 nM. In assay [2], the “aldose reductase inhibitor potency (in words)” value is given as “one of the most potent inhibitors heretofore investigated”. The “motor nerve conduction velocity (MNCV)” value in assay [3] is recorded as “improve motor nerve conduction velocity (MNCV)”.
Regarding `C=CC/C=C\C/C=C\CCCCCCCc1cc(O)cc(O)c1` [Compound 16, 5-[8(z),11(z),14-pentadecatrienyl]resorcinol], the inhibition at aldose reductase (read-out: Percent Inhibition (%), 10^-6 M (× 1.9)) turned out to be 12%; at aldose reductase (read-out: Percent Inhibition (%), 10^-6 M (× 3.8)), 16%; at aldose reductase (read-out: Percent Inhibition (%), 10^-6 M (× 7.5)) it was 85%.
Consider `CCCCCC/C=C\CCCCCCCc1cccc(O)c1C(=O)O` [Compound 2, 6-[8(z)-pentadecenyl]salicylic acid], for which the inhibition on aldose reductase (setting [5]) came out at 9%; at aldose reductase (setting [6]), 42%; at aldose reductase (setting [7]), 91%.
Consider `O=C(O)CN1C(=O)c2cccc3cccc(c23)C1=O` [Alrestatin, 1,3-dioxo-1H-benz (de) isoquinoline-2(3H)-acetic acid], for which the “improvement in diabetic patients” value in assay [1] was “no improvement was observed”. For the same compound, the “motor nerve conduction velocity (MNCV)” value in assay [3] is “improve motor nerve conduction velocity (MNCV)”. In assay [4], the galactosemic cataract formation result is “successfully prevent galactosemic cataract formation” and the sugar polyol accumulations entry is “blocking the sugar polyol accumulations”.
Turning to `C=CC/C=C\C/C=C\CCCCCCCc1cccc(O)c1C(=O)O` [Compound 4, 6-[8(z),11(z),14-pentadecatrienyl]salicylic acid], the inhibition came to 47% at aldose reductase (setting [5]), 60% at aldose reductase (setting [6]) and 77% on aldose reductase (setting [7]).
As for `C=CC/C=C\C/C=C\CCCCCCCc1cc(O)c(C)c(O)c1` [Compound 12, 2-methyl-5-[8(z),11(z),14-pentadecatrienyl]resorcinol], the inhibition worked out at 28% at aldose reductase (setting [6]) and 53% on aldose reductase (setting [7]).
Regarding `CCC/C=C\C/C=C\CCCCCCCc1cccc(O)c1C(=O)O` [Compound 3, 6-[8(z),11(z)-pentadecadienyl]salicylic acid], the inhibition on aldose reductase (setting [5]) is 1%; at aldose reductase (setting [6]), 18%; on aldose reductase (setting [7]), 91%.
`CCCCCCCCCCCCCCCc1cccc(O)c1C(=O)O` [Compound 1, 6-Pentadecylsalicylic Acid]: the inhibition came out at 27% at aldose reductase (setting [6]) and 40% on aldose reductase (setting [7]).
As to `CCC/C=C\C/C=C\CCCCCCCc1cc(O)c(C)c(O)c1` [Compound 11, 2-methyl-5-[8(z),11(z)-pentadecadienyl]resorcinol], the values for the inhibition on aldose reductase (setting [6]) and on aldose reductase (setting [7]) were 22% and 43%, respectively.

The inhibition is how much of the control response was suppressed.
